The test system of series [1] is ELuc (Emerald Luc) luciferase (originating from Hikari Kometsuki). As to the kind of experiment: Km value of ELuc luciferase relative to D-luciferin and ATP (luminometer, photon count). As to conditions: 8 mM MgSO4, 0.1M Tris-HCl pH 8.0. It is filed as biochemical. As for the experimental part:
(§1) As for the blank, the buffer described above was employed. FIG. 6 illustrates the ultraviolet/visible light absorption spectrum of […].
(§2) Then, in order to calculate the concentration of ATP, the ultraviolet/visible light absorption spectrum of ATP was measured. In this measurement, the spectrum was measured using a diluted (by 2000 times) solution (in 0.1M Citrate/0.2M Na2HPO4 buffer, pH=7.0) of ATP stock solution (about 100 mM). As for the blank, the buffer described above was employed. FIG. 7 illustrates the ultraviolet/visible light absorption spectrum of ATP.
(§3) (Experiment Method 2: Purification of Various Kinds of Luciferase)
(§4) The purification of luciferase was performed according to the following procedure after establishing a luciferase-purification system utilizing affinity chromatography.
(§5) (Procedure of Transfection of Luciferase Expression Vector to Coli Bacillus)
(§6) First of all, 0.5 μL of luciferase expression vector was introduced into 50 μL of coli bacillus (JM109(DE3)). Then, the resultant liquid was subjected to a thermostatic treatment consisting of ice-cooling for 10 minutes, heating at 42° C. for one minute and ice-cooling for two minutes. Then, 2 μL of the resultant coli bacillus solution was added to 1 mL of an SOC culture medium.
(§7) Subsequently, the resultant solution of coli bacillus/SOC culture medium mixture was subjected to shaking at 37° C. for 20 minutes and to incubation. Then, 100 μL of the resultant solution was streaked onto an LB culture medium plate (Ampicillin 100 μg/mL+) and subjected to incubation overnight at 37° C.
(§8) (Purification of Luciferase by Means of Affinity Chromatography)
(§9) Then, the coli bacillus was fractured to obtain a raw extract, from which luciferase was purified by means of affinity chromatography.
(§10) Namely, first of all, a suspension of coli bacillus was subjected to centrifugal separation at 15000 rpm for 5 minutes to recover the pellets of coli bacillus, which was then suspended in 10 mL of TBS cooled to 4° C. Subsequently, by making use of French Pressure Cell, the fungus body was fractured. The resultant fungus body-fractured liquid was subjected to centrifugal separation (15000 rpm, 10 minutes) to remove settled residues and to recover a supernatant liquid.
(§11) Subsequently, 2 mL of TBS was added to a column having 2 mL of bed volume and subjected to filtration. Then, 500 μL of a Ni-Agar suspension and 2 mL of TBS were added to the column and the TBS was allowed to gravitationally drop (column equilibration). The supernatant liquid thus recovered was added to the column and allowed to gravitationally drop. Incidentally, the operation until the drop of the supernatant liquid was completed was performed inside a refrigerator at a temperature of 4° C. […]

Series [2] relates to Yaeyama luciferase (Yaeyama Hime firefly, Luciola filiformis yayeyamana; DNA Sequence No. 1). As to the kind of experiment: Km value of Yaeyama luciferase relative to D-luciferin and ATP (luminometer, photon count). It is filed as biochemical. As to conditions: 8 mM MgSO4, 0.1M Tris-HCl pH 8.0. As for the experimental part: as §1, §2, §3, §4, §5, §6, §7, §8, §9, §10, §11

Series [3] relates to CBG luciferase (originating from Hikari Kometsuki). As to the kind of experiment: Km value of CBG luciferase relative to D-luciferin and ATP (luminometer, photon count). The format is biochemical. As to conditions: 8 mM MgSO4, 0.1M Tris-HCl pH 8.0. As for the experimental part: as §1, §2, §3, §4, §5, §6, §7, §8, §9
(§12) Namely, first of all, a suspension of coli bacillus was subjected to centrifugal separation at 15000 rpm for 5 minutes to recover the pellets of coli bacillus, which was then suspended in 10 mL of TBS cooled to 4° C. Subsequently, by making use of French Pressure Cell, the fungus body was fractured. […]

Series [4] deals with CBR luciferase (originating from Hikari Kometsuki). The series is described as follows: Km value of CBR luciferase relative to D-luciferin and ATP (luminometer, photon count). The format is biochemical. The following applies: 8 mM MgSO4, 0.1M Tris-HCl pH 8.0. As to the method: as §1, §2, §3, §4, §5, §6, §7, §8, §9, §12
Series [5] deals with GL3 luciferase (originating from firefly) (Photinus pyralis, UniProt P08659, K549A/L550V/N119G/N50D/S548I). As to the kind of experiment: Km value of GL3 luciferase relative to D-luciferin and ATP (luminometer, photon count). The format is biochemical. As to conditions: read-out: Km value of GL3 relative to ATP, 10-1280 μM ATP, 1 mM D-luciferin, 8 mM MgSO4, 0.1M Tris-HCl pH 8.0. As for the experimental part:
as §1, §2, §3, §4, §5
First of all, 0.5 μL of luciferase expression vector was introduced into 50 μL of coli bacillus (JM109(DE3)). Then, the resultant liquid was subjected to a thermostatic treatment consisting of ice-cooling for 10 minutes, heating at 42° C. for one minute and ice-cooling for two minutes. Then, 2 μL of the resultant coli bacillus solution was added to 1 mL of an SOC culture medium. […]

For the next series, the system named is intercellular ATP. The following applies: apoptosis induced by STS; cited from earlier work.
Substrate in series [6]: Nc1ncnc2c1ncn2[C@@H]1O[C@H](COP(=O)(O)OP(=O)(O)OP(=O)(O)O)[C@@H](O)[C@H]1O
As to the kind of experiment: purified protein, by the assay type. The format is biochemical, Luciola cruciata. The following applies: 10-1280 μM ATP, 1 mM D-luciferin, 8 mM MgSO4, 0.1M Tris-HCl pH 8.0. As to the method: as §1, §2
By making use of the absorbency (259 nm, 0.359±0.004, n=10) obtained from the spectrum of FIG. 7, the concentration of the ATP stock solution was calculated (ATP: λmax=259 nm, ε=15400, pH=7.0). As a result of the calculation, the concentration of the ATP stock solution was found as being 46.6 mM. […]
Subsequently, the elute was moved 400 μL by 400 μL to a centrifugal concentration tube (SUPREC™-02, available from TaKaRa Co., Ltd. (exclusion limit molecular weight: 30,000)) and then subjected to centrifugal separation (5000 rpm, 30 minutes) until the elute was concentrated to about 100 μL. Thereafter, the absorbency of the concentrated elute was measured by means of a plate reader and the concentration of luciferase was calculated from the calibration curve which was prepared by making use of BSA. […]

Substrate in series [7]: O=C(O)[C@H]1CSC(c2nc3ccc(O)cc3s2)=N1
The series is described as follows: purified protein, by the assay type. As to conditions: 5-640 μM D-luciferin, 4 mM ATP, 8 mM MgSO4, 0.1M Tris-HCl pH 8.0.

Series [8] can be described thus: Km value of luciferase relative to ATP (luminometer photon count, Example 2). It is filed as biochemical. As for the experimental part: (Experiment Method 4: Calculation of Km Value of Various Kind of Luciferase Relative to ATP)
Then, a 0.1M Tris-HCl (pH=8.0) solution of 100 μg/ml luciferase was prepared. The ATP solutions having the aforementioned concentrations were respectively aliquoted to a vessel having 96 wells, thus creating wells each containing 50 μl of the ATP solution.
Then, the luciferase solution was connected with a standard pump of luminometer, after which a program was prepared so as to initiate the measurement concurrent with the addition of 50 μl of the luciferase solution to each of the wells.
Subsequently, the program was started to measure the photon-count value at each ATP concentration. Incidentally, the measurement was repeated five times at each concentration of ATP.
Based on the results obtained, Lineweaver-Burk plot and Hanes-Woolf plot were prepared.

A short description of series [9]: Luminescence pattern measured with a luminometer (time to peak luminescence after addition of luciferin). The format is biochemical. The source says: Further, with respect to the luminescence pattern obtained from the measurement using a luminometer also, the results obtained from the luciferase originated from Hikari Kometsuki were found different from the results obtained from the firefly-derived luciferase.
Although data are not shown herein, the results obtained from the Luciferase originated from Hikari Kometsuki were found different from the results obtained from the firefly-derived luciferase with respect also to the luminescence pattern obtained from the measurement using a luminometer.

Read-outs that look alike come from different tables or passages of the source.

Sequence of GL3 luciferase (originating from firefly) (P08659 whole entry N50D/N119G/S548I/K549A/L550V): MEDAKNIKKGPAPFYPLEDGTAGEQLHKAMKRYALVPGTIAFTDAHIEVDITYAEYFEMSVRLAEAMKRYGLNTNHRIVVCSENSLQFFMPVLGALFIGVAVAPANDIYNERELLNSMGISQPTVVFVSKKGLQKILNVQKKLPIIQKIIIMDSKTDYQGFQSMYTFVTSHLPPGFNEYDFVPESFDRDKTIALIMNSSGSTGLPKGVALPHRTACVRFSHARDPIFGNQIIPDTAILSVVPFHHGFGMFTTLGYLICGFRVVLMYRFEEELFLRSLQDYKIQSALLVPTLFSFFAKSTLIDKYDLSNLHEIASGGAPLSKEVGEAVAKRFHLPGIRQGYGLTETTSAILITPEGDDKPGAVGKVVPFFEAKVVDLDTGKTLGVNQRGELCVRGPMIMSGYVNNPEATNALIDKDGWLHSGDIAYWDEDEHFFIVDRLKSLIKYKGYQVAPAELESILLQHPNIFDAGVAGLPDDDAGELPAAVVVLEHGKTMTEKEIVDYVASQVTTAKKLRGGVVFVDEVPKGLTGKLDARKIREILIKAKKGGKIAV

Broadly, the Km is the substrate concentration at which the rate is half of its maximum. `Nc1ncnc2c1ncn2[C@@H]1O[C@H](COP(=O)(O)OP(=O)(O)OP(=O)(O)O)[C@@H](O)[C@H]1O` [ATP]: the Km in series [1] (Hanes-Woolf plot, 10-1280 μM ATP, 1 mM D-luciferin, read-out: Km value of ELuc relative to ATP) is 250 µM; in [1] (Lineweaver-Burk plot, 10-1280 μM ATP, 1 mM D-luciferin, read-out: Km value of ELuc relative to ATP), 364 µM; in series [2] (Hanes-Woolf plot, 10-1280 μM ATP, 1 mM D-luciferin, read-out: Km value of Yaeyama relative to ATP) it was 400 µM; in series [2] (Lineweaver-Burk plot, 10-1280 μM ATP, 1 mM D-luciferin, read-out: Km value of Yaeyama relative to ATP), 400 µM; in series [3] (Hanes-Woolf plot, 10-1280 μM ATP, 1 mM D-luciferin, read-out: Km value of CBG relative to ATP), 290 µM; in [4] (Hanes-Woolf plot, 10-1280 μM ATP, 1 mM D-luciferin, read-out: Km value of CBR relative to ATP), 130 µM. Besides, the Km is 110 µM in [4] (Lineweaver-Burk plot, 10-1280 μM ATP, 1 mM D-luciferin, read-out: Km value of CBR relative to ATP); 200 µM in series [5] (Hanes-Woolf plot); 200 µM in [5] (Lineweaver-Burk plot).

For `O=C(O)[C@H]1CSC(c2nc3ccc(O)cc3s2)=N1` [D-luciferin], the Km in series [1] (read-out: Km value of ELuc relative to D-luciferin, Hanes-Woolf plot, 5-640 μM D-luciferin, 4 mM ATP) amounted to 15 µM; in series [1] (read-out: Km value of ELuc relative to D-luciferin, Lineweaver-Burk plot, 5-640 μM D-luciferin, 4 mM ATP), 15 µM; in [2] (read-out: Km value of Yaeyama relative to D-luciferin, Hanes-Woolf plot, 5-640 μM D-luciferin, 4 mM ATP), 100 µM; in series [2] (read-out: Km value of Yaeyama relative to D-luciferin, Lineweaver-Burk plot, 5-640 μM D-luciferin, 4 mM ATP), 100 µM; in series [3] (read-out: Km value of CBG relative to D-luciferin, Hanes-Woolf plot, 5-640 μM D-luciferin, 4 mM ATP) it was 10.5 µM; in [3] (read-out: Km value of CBG relative to D-luciferin, Lineweaver-Burk plot, 5-640 μM D-luciferin, 4 mM ATP), 10.5 µM. Further, the Km in series [4] (read-out: Km value of CBR relative to D-luciferin, Lineweaver-Burk plot, 5-640 μM D-luciferin, 4 mM ATP) worked out at 36.4 µM.

`CN[C@@H]1C[C@H]2O[C@@](C)([C@@H]1OC)n1c3ccccc3c3c4c(c5c6ccccc6n2c5c31)C(=O)NC4` [STS, Staurosporine]: the “intercellular ATP concentration at the initial stage of apoptosis” value in the series with intercellular ATP is listed as “caused to increase”.

B1: Genji luciferase (Genji firefly, Luciola cruciata) (Nipponoluciola cruciata) (protein)
chain: MENMENDENIVVGPKPFYPIEEGSAGTQLRKYMERYAKLGAIAFTNAVTGVDYSYAEYLEKSCCLGKALQNYGLVVDGRIALCSENCEEFFIPVIAGLFIGVGVAPTNEIYTLRELVHSLGISKPTIVFSSKKGLDKVITVQKTVTTIKTIVILDSKVDYRGYQCLDTFIKRNTPPGFQASSFKTVEVDRKEQVALIMNSSGSTGLPKGVQLTHENTVTRFSHARDPIYGNQVSPGTAVLTVVPFHHGFGMFTTLGYLICGFRVVMLTKFDEETFLKTLQDYKCTSVILVPTLFAILNKSELLNKYDLSNLVEIASGGAPLSKEVGEAVARRFNLPGVRQGYGLTETTSAIIITPEGDDKPGASGKVVPLFKAKVIDLDTKKSLGPNRRGEVCVKGPMLMKGYVNNPEATKELIDEEGWLHTGDIGYYDEEKHFFIVDRLKSLIKYKGYQVPPAELESVLLQHPSIFDAGVAGVPDPVAGELPGAVVVLESGKNMTEKEVMDYVASQVSNAKRLRGGVRFVDEVPKGLTGKIDGRAIREILKKPVAKM
As to B1, the Km turned out to be 500 µM in [6] (other: Hanes-Woolf plot), 500 µM in series [6] (other: Lineweaver-Burk plot), 75.0 µM in [7] (other: Hanes-Woolf plot) and 75.0 µM in series [7] (other: Lineweaver-Burk plot).

B2: Yaeyama: luciferase originated from Yaeyama Hime firefly (Luciola filiformis yayeyamana), DNA sequence of Sequence No. 1 (protein)
chain: MEMEKEENVVYGPQPFYPIEAGSAGIQLHKYMHQYAQLGAIAFSNALTGVDISYQEYFDITCRLAEAMKNYGMTQEGRIALCSENCEEFFIPVVAGLYIGVGVAPTNEIYTLRELNHSLGIAEPTIVFSSRKGLPKVLEVQKNVTCIKTIVILDSKVNFGGYDCVETFIKKNVPSGFQPSSFKPMDVKNRKEHLALLMNSSGSTGLPKGVQITHEGTVTRFSHAKDPIYGNQVSPGTAILTVVPFHHGFGMFTTLGYFACGYRVVMLTKFDEELFLKTLQDYKCTSVILVPTLFGILNKSELIDKFDLSNLTEIASGGAPLAKEVGEAVARRFNLPGIRQGYGLTETTSAFIITPEGDDKPGASGKVVPLFKVKVIDLDTKKTLGVNRRGEICVKGPSLMKGYVRNPEATKEIIDDEGWMHTGDIGYYDEDEHFFIVDRLKSLIKYKGYQVPPAELESVLLQHPNIFDAGVAGVPDPEAGELPGAVVVLEKGKTMTEKQIVEYVNSQVVNHKRLRGGVRFVDEVPKGLTGKIDAKVIREILKKPQSKM
modifications: Luciola filiformis yayeyamana
With B2, the “affinity to ATP as compared with other kinds of luciferase” value in series [8] was “relatively low in affinity to ATP”. Besides, the “time of peak luminescence intensity after the addition of luciferin” value in series [9] lay in the range of 0.5 to 1 s.

The values are drawn from patent publication US8163661B2, “Luminescence measurement system” (Olympus Corporation, priority 2007, dated 2012).
